Source: PMC4423777, “Ciprofloxacin Derivatives Affect Parasite Cell Division and Increase the Survival of Mice Infected with Toxoplasma gondii” (PLoS ONE, 2015)
“And” between values parts separate entries of the source, which are not always exact repeats. Equal values may be shown once. “Also recorded” adds a separate entry of the source. Read-outs that look alike come from different tables or passages of the source.

Assays:
[1] = system: T. gondii tachyzoites; assay: Immunofluorescence microscopy of treated tachyzoites in LLC-MK2 cells (cell division arrest, basal IMC gap); assay type: cell-based, Toxoplasma gondii; details: for Basal IMC length mean: untreated control 0.65 ± 0.11 μm; for Effect on parasite division, anti-IMC1 labeling: 1 and 5 μM Et-Cipro and Adam-Cipro, 10 μM Ph-Cipro
Description: For Cipro assay, cells were infected in a ratio of 5:1 parasites per host cell and treated for 24, 48 and 72h. After treatment, infected cells were fixed in 3.7% freshly-prepared formaldehyde, permeabilized with 0.5% Triton X-100 for 15 min, and blocked with 3% bovine serum albumin (BSA) in PBS at pH 7.4 and room temperature for 1 h. All antibody incubations were performed in 3% BSA in PBS, for 1h, at room temperature. The following primary antibodies were used: anti-SAG1 (kindly provided by Dr. John Boothroyd, Stanford University School of Medicine, USA), at a dilution of 1:1000; anti-HSP60 and anti-Morn1 (kindly provided by Dr. Boris Striepen, University of Georgia, USA), diluted to 1:2000 and 1:100, respectively; and anti-IMC1 (kindly provided by Dr. Gary Ward, University of Vermont, USA), diluted to 1:1000. The secondary antibodies used here were anti-mouse/rabbit coupled to Alexa 488 or 546 (Molecular Probes). Sytox green (Molecular Probes) and DAPI (Sigma-Aldrich) were used to label the DNA. After labeling, the coverslips were mounted onto slides using Prolong gold (Life Technologies), and samples were examined on a TCSSP5 Leica or Zeiss LSM710 laser scanning confocal microscopes.

[2] = system: T. gondii; assay: Plaque assay in human foreskin fibroblasts, 10 days treatment; assay type: cell-based, Toxoplasma gondii; details: HFF
Description: For plaque assay, 6-well tissue culture plates were seeded with human foreskin fibroblasts (HFF; ATCC). HFF was grown in high glucose Dulbeco’s Modified Eagle Medium supplemented with 10% FBS, 2mM L-glutamine, 100 U/ml penicillin, and 100 μg/ml streptomycin and maintained at 37°C with 5% CO2. After cultures reached confluence each well was infected with 10^4 of T. gondii. Infected cultures were treated for 10 days with Cipro derivatives, Cipro or left untreated.

[3] = system: T. gondii tachyzoites; assay: Parasites per vacuole in LLC-MK2 cells after 6 h treatment (light microscopy); assay type: cell-based, Toxoplasma gondii
Description: For the treatment of T. gondii tachyzoites with Cipro derivatives in vitro, 5x10^5 LLC-MK2 cells (ATCC CCL7, Rockville, MD/EUA) in RPMI medium were plated on coverslips inside 24-well tissue culture plates, and allowed to settle at 37°C (5% CO2) for ~24h. Then, cells were infected with parasites (freshly-harvested from infected mice) at a 10:1 ratio of parasites to host cells. […] Then, coverslips were fixed with Bouin and stained with panoptic (solutions 2 and 3 of the ‘Panotico rápido’ kit, from Laborclin Ltda., Paraná, Brazil). Alternatively, cultures were washed three times with 0.5 ml of medium (to remove test compounds) and incubated for an additional 18 h in medium without drugs, before fixing and staining. The number of parasites per vacuole was scored by direct light microscopy examination. Three independent experiments were performed for each treatment condition, and the results were analyzed by two-way ANOVA (using GraphPad Prism 5.0).

[4] = system: Cryptosporidium parvum sporozoites; assay: Cryptosporidium parvum in vitro growth assay in MDBK cells; assay type: cell-based
Description: C. parvum oocysts obtained from infected neonatal calves (Institut National de la Recherche Agronomique-INRA, Nouzilly, France) were purified as previously described and stored in PBS at 4°C. Madin Darby bovine kidney cell line (MDBK; ECACC # 88081201, Sophia Antipolis, France) was cultured at 37°C in a 5% CO2 moist atmosphere in growth medium: RPMI 1640 (Sigma, L’Isle d’Abeau, France) supplemented with 25 mM HEPES (Sigma H-3375), 200 U/ml of penicillin, 200 μg/ml of streptomycin (Sigma P-0781) and 10% fetal calf serum (FCS; Dutscher, Brumath, France).
Prior to infection, MDBK cells were trypsinized and seeded in just one well of a 24-well plate in 2 ml of RPMI 1640 with 1% FCS. Aseptic oocysts were prepared for excystation by incubation in RPMI-1640, pH 2 (for 30 min at 37°C). Then, oocytes were washed in RPMI 1640 with 1% FCS and allowed to interact with MDBK cells for 1.5 h at 37°C in a 5% CO2 atmosphere. After 3 washes by centrifugation at 160 g in RPMI 1640 to remove non-excysted oocysts and shells, infected cells were plated in 24-well plates containing glass coverslips, in 500 μl/well of RPMI/1%FCS, and allowed to settle for 24 h. The infected cells were subsequently washed 3 times with RPMI 1640 and allowed to grow for a further 5 h (in 500 μl/well of RPMI/1% FCS). 500 μl of medium containing twice-concentrated Cipro derivatives were then added in triplicates in an equal volume of growth medium and left for another 24 h. Cells were fixed in 100% methanol and stained with 20% Giemsa and 1% Alcian blue as previously described, and the effects against sporozoite proliferation were evaluated by examining at least 1000 cells/coverslip in a light microscope, using an oil immersion X100 objective.

[5] = for Serum levels of creatinine kinase (in words): single oral dose, 48 h; for Mouse weight (g) After 48 h / Mouse weight (g) Initial: uninfected Swiss mice; for Mouse weight (g) Initial: before dosing; for Serum urea: reference 18–29 mg/dL; for Serum creatinine kinase: reference ≤ 1070 U/L
Description: Acute toxicity analysis was performed using non-infected female Swiss mice (19–21 g).

[6] = system: T. gondii tachyzoites (RH strain); assay: Survival of mice acutely infected with T. gondii, 7-day oral treatment; assay type: in vivo, Toxoplasma gondii; details: 7 days, from 24 h post-infection
Description: In this study, we used tachyzoite forms the RH strain of Toxoplasma gondii, obtained from the peritoneal cavity of mice 2 days after infection. […] Drinking water and food were given ad libitum.
To determine compound efficacy against T. gondii in vivo, female Swiss mice were infected intraperitoneally (i.p.) with 5x10^3 T. gondii tachyzoites and treated with test compounds from 24 h post-infection. […] Mice were treated once daily for 7 days, by oral gavage, and mouse mortality was monitored once a day for a period of 60 days. During survival studies, mice were not inflicted to any suffering condition and mice presenting morbidity symptoms (shivering, ruffled hair and immobility) were euthanized by CO2 asphyxiation to minimize animal suffering, and then mortality was scored. Survival curves were calculated using the Kaplan and Meier method, and compared using the log-rank (Mantel-Cox) test, in GraphPad Prism 5.0 (GraphPad Software Inc.) and P<0.05 was considered statistically significant.

[7] = system: T. gondii tachyzoites; details: read-out: IC50 against T. gondii in vitro; after 48 h of treatment; cited from earlier work
[8] = system: T. gondii; design: method as in PMID 8843293, PMID 11120943; details: read-out: IC50 against T. gondii, cited from earlier work

Row | Compound | Parasite proliferation in plaque assay ([2]; 10 μM) | Effect on parasite division, anti-IMC1 labeling ([1]; 24 h) | Mouse weight (g) After 48 h ([5]; single oral dose 25 mg/kg) [g] | Mouse weight (g) Initial ([5]; single oral dose 25 mg/kg) [g] | Serum urea ([5]; single oral dose 25 mg/kg) [mg/dL] | Mouse weight (g) After 48 h ([5]; single oral dose 50 mg/kg) [g] | Mouse weight (g) Initial ([5]; single oral dose 50 mg/kg) [g] | Serum urea ([5]; single oral dose 50 mg/kg) [mg/dL] | Serum creatinine kinase ([5]; single oral dose 50 mg/kg) [U/L] | Mouse weight (g) After 48 h ([5]; single oral dose 100 mg/kg) [g] | Mouse weight (g) Initial ([5]; single oral dose 100 mg/kg) [g] | Serum urea ([5]; single oral dose 100 mg/kg) [mg/dL] | Mouse weight (g) After 48 h ([5]; single oral dose 200 mg/kg) [g] | Mouse weight (g) Initial ([5]; single oral dose 200 mg/kg) [g] | Serum urea ([5]; single oral dose 200 mg/kg) [mg/dL] | Serum creatinine kinase ([5]; single oral dose 200 mg/kg) [U/L] | IC50 [7] [nM] | % inhibition of sporozoites growth ([4]; 12.5 μM, 24 h, MDBK cells) [%] | % inhibition of sporozoites growth ([4]; 25 μM, 24 h, MDBK cells) [%] | also measured
1 | O=C(O)c1cn(C2CC2)c2cc(N3CCNCC3)c(F)cc2c1=O [Cipro, ciprofloxacin] | significant decrease in parasite proliferation; also recorded: drastic reduction on parasite proliferation | – | – | – | – | – | – | – | – | – | – | – | – | – | – | – | – | – | – | Alteration of tachyzoites (in words) ([1]; 20 μM, 24 h): not induced any significant alteration; Parasitophorous vacuoles containing parasites presenting cell division arrest ([1]; 20 μM, 48 h): 24%; Parasitophorous vacuoles containing parasites presenting cell division arrest ([1]; 20 μM, 72 h): 26%; Parasite proliferation in plaque assay ([2]; 20 / 20 μM): No growth; also recorded: no plaques were observed; Vacuoles containing just one parasite ([3]; 20 μM, 6 h treatment (7 h total infection), LLC-MK2): 54%; Parasitophorous vacuoles having just one parasite ([3]; 50 μM, 6 h treatment (7 h total infection), LLC-MK2): 68%; IC50 ([4]; Cryptosporidium parvum, MDBK, after 24h, estimated, read-out: IC50 against C. parvum): 39200 nM; inhibition at 12.5 µM ([4]; Cryptosporidium parvum, 12.5 μM, 24 h, MDBK cells): 19.5 ± 1.1%; inhibition at 25 µM ([4]; Cryptosporidium parvum, 25 μM, 24 h, MDBK cells): 46.1 ± 2.9%; inhibition at 50 µM ([4]; Cryptosporidium parvum, 50 μM, 24 h, MDBK cells): 53.4 ± 2.51%
2 | CCOC(=O)c1cn(C2CC2)c2cc(N3CCNCC3)c(F)cc2c1=O [Et-Cipro] | – | parasite cell division arrest | 22.25 | 19.87 | 55.8 | 20.92 | 19.15 | 51.2 | 182 | 22.27 | 20.71 | 55.1 | 22.17 | 20.0 | 49.3 | 583 | 420 | 20.3 ± 10.1 | 32.6 ± 7.6 | Basal IMC length mean ([1]; 1 μM, 24 h): 0.76 ± 0.20 μm; Parasite morphology, anti-SAG1 / Sytox green labeling ([1]; 5 μM, 24 h): formation of large multinucleated parasites; Basal IMC length mean ([1]; 5 μM, 24 h): 0.80 ± 0.26 μm; Serum levels of creatinine kinase (in words) ([5]; higher doses): normal; Serum creatinine kinase ([5]; single oral dose 25 mg/kg): 1727 U/L; Serum creatinine kinase ([5]; single oral dose 100 mg/kg): 578 U/L; Parasite proliferation in plaque assay ([2]; 5 μM): No growth; also recorded: no plaques were observed; Survival of T. gondii-infected mice, alive 60 days post-infection ([6]; 50 mg/kg/day oral): 18%; Vacuoles containing just one parasite ([3]; 2 μM, 6 h treatment (7 h total infection), LLC-MK2): 57%; Concentration required to affect parasite division significantly ([3]; 6 h treatment): > 2 µM; Increase in activity (cell division inhibition) compared with the original compound Cipro ([3]; 6 h treatment, concentrations with similar effect compared): 10 fold; % inhibition of sporozoites growth ([4]; 50 μM, 24 h, MDBK cells): 36% and 36.43 ± 9.76%
3 | CCOC(=O)c1cn(C2CC2)c2cc(N3CCN(Cc4ccccc4)CC3)c(F)cc2c1=O [Ph-Cipro] | No growth; also recorded: no plaques were observed | parasite cell division arrest | 23.85 | 21.21 | 49.2 | 22.72 | 19.30 | 50.6 | 506 | 21.94 | 19.21 | 52.8 | 22.20 | 19.93 | 46.2 | 1541 | 1240 | 33.6 ± 11.6 | 42.6 ± 14.6 | Basal IMC length mean ([1]; 10 μM, 24 h): 0.73 ± 0.24 μm; Serum levels of creatinine kinase (in words) ([5]; 200 mg/kg): slightly altered; Toxicity to mice (in words) ([5]; high doses (200mg/kg)): mild toxicity; Survival of T. gondii-infected mice, alive 60 days post-infection ([6]; 100 mg/kg/day oral): 13%; Survival of T. gondii-infected mice, alive 60 days post-infection ([6]; 150 mg/kg/day oral): 18%
4 | COc1c(N2CCNC(C)C2)c(F)cc2c(=O)c(C(=O)O)cn(C3CC3)c12 (stereo not shown) [gatifloxacin] | – | – | – | – | – | – | – | – | – | – | – | – | – | – | – | – | – | – | – | IC50 ([8]; HFF primary cell culture after 48h): 520 nM
5 | N[C@@H]1[C@H]2CN(c3nc4c(cc3F)c(=O)c(C(=O)O)cn4-c3ccc(F)cc3F)C[C@@H]12 [trovafloxacin] | – | – | – | – | – | – | – | – | – | – | – | – | – | – | – | – | – | – | – | IC50 ([8]; L929 cell line): 1370 nM
